Experimental findings from paper PMC10011747, “Targeting androgen receptor and the variants by an orally bioavailable Proteolysis Targeting Chimeras compound in castration resistant prostate cancer” (eBioMedicine, 2023) are described below.

What is called DC50 is the concentration at which degradation of the target reaches its halfway point. The Dmax is the largest share of the target that was removed.

In the experiment the target is T1, AR-V7 (Homo sapiens, UniProt P10275).
T1 construct: endogenous in cells; host or cells: CWR22Rv1, VCaP
T1 sequence (P10275 1-644 isoform P10275-3): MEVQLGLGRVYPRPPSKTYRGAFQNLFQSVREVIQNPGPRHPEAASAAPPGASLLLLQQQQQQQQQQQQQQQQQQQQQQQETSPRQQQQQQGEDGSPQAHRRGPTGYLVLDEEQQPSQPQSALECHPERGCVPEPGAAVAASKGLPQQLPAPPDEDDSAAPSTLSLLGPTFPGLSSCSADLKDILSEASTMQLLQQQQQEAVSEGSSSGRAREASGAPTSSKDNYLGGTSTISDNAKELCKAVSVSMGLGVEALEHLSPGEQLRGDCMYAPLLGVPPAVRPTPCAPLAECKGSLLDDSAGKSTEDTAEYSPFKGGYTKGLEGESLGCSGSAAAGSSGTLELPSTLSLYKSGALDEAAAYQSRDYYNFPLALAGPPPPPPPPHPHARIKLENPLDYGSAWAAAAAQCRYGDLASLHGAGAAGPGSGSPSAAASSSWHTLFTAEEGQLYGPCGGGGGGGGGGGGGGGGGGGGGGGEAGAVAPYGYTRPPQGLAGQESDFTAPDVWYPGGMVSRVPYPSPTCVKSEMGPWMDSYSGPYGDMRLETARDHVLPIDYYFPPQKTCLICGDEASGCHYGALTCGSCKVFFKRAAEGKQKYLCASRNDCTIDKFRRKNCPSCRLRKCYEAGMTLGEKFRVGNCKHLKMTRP
The experiment can be described thus: AR-V7 degradation by western blot (AR-V7 specific antibody). The class given is cell-based. The following applies: for DC50: 24 h treatment; for Dmax at 20 µM: maximum degradation at 20 μM. The protocol:
To obtain total lysates, cells were lysed in RIPA buffer (50 mM Tris–HCl pH 8.0, 150 mM NaCl, 1% NP-40, 0.5% Na-deoxycholate, 0.5% SDS plus protease inhibitors). The lysates were resolved by SDS-polyacrylamide gel electrophoresis, and the protein expression was analyzed by western blotting using primary antibodies against AR (Millipore Cat# 06-680, RRID:AB_310214), AR-V7 (RevMAb Biosciences Cat# 31-1109-00, RRID:AB_2716436), GAPDH (Cell Signaling Technology Cat# 2118, RRID:AB_561053) and Actin (Sigma–Aldrich Cat# A5441, RRID:AB_476744). pLenti4/TO/Flag-AR or pLenti4/TO/Flag-TC-AR plasmid was co-transfected with HA-ubiquitin plasmid into 293T cells. 24 h after transfection, the cells were treated with 10 μM of the PROTAC compounds for 16 h, followed by 4-h treatment of 5 μM MG132. The cells were lysed with lysis buffer (50 mM Tris–HCl pH7.5, 150 mM NaCl, 0. 5% Triton X-100, 10% glycerol, 1 mM EDTA plus protease inhibitors) containing 1 ng/mL of N-ethylmaleimide, followed by immunoprecipitation with anti-Flag M2 (Sigma–Aldrich Cat# F3165, RRID:AB_259529) antibody. The ubiquitinated AR was then detected by western blotting using anti-HA (Sigma–Aldrich Cat# H3663, RRID:AB_262051) antibody.
Fig. 1 PROTAC-based AR degraders ITRI-90, ITRI-125 and ITRI-126 reduce AR and AR-V7 proteins in prostate cancer cell lines. (a) Chemical structure of the PROTAC AR degraders. (b) Representative western blots of AR protein levels in LNCaP, CWR22Rv1 and VCaP cells treated with the PROTAC degraders for 24 h. AR was detected by N-terminal antibody which also detects C-terminal truncated AR-V(ΔLBD) in CWR22Rv1 cells. AR-V7 specific antibody was used for AR-V7 detection. 4%–12% gradient gel was used to separate different species of AR-V(ΔLBD) near 75 kDa in CWR22Rv1 cell lysates. DC50 indicating the concentration required to achieve 50% degradation, was calculated based on normalized full-length AR and AR-V7 band intensity. Dmax is the maximum degradation achieved at 20 μM compound treatment. TEXT PRINTED IN THE PICTURE: (a) ITRI-90: AR DC50 (μM) LNCaP: 2.12 ± 0.93; AR DC50 (μM) CWR22Rv1: 5.73 ± 2.28; AR DC50 (μM) VCaP: 8.67 ± 4.87; AR-V7 DC50 (μM) CWR22Rv1: 4.72 ± 2.52; AR-V7 DC50 (μM) VCaP: 0.29 ± 0.15; AR Dmax (%) LNCaP: 88; AR Dmax (%) CWR22Rv1: 98; AR Dmax (%) VCaP: 90; AR-V7 Dmax (%) CWR22Rv1: 100; AR-V7 Dmax (%) VCaP: 63 | (a) ITRI-125: AR DC50 (μM) LNCaP: 6.10 ± 4.43; AR DC50 (μM) CWR22Rv1: 6.64 ± 1.87; AR DC50 (μM) VCaP: 9.05 ± 3.75; AR-V7 DC50 (μM) CWR22Rv1: 1.89 ± 1.06; AR-V7 DC50 (μM) VCaP: 0.52 ± 0.37; AR Dmax (%) LNCaP: 71; AR Dmax (%) CWR22Rv1: 96; AR Dmax (%) VCaP: 85; AR-V7 Dmax (%) CWR22Rv1: 99; AR-V7 Dmax (%) VCaP: 67 | (a) ITRI-126: AR DC50 (μM) LNCaP: 3.41 ± 3.13; AR DC50 (μM) CWR22Rv1: 0.11 ± 0.02; AR DC50 (μM) VCaP: 0.851 ± 0.43; AR-V7 DC50 (μM) CWR22Rv1: 0.011 ± 0.003; AR-V7 DC50 (μM) VCaP: 0.43 ± 0.19; AR Dmax (%) LNCaP: 99; AR Dmax (%) CWR22Rv1: 74; AR Dmax (%) VCaP: 94; AR-V7 Dmax (%) CWR22Rv1: 91; AR-V7 Dmax (%) VCaP: 82
A general note: Immunoblotting shows a protein as a band on a membrane.

Where [1] appears, read: CWR22Rv1 cells, read-out: AR-V7 DC50 CWR22Rv1.
Where [2] appears, read: CWR22Rv1 cells, read-out: AR-V7 Dmax CWR22Rv1.
Setting [3] is: VCaP cells, read-out: AR-V7 DC50 VCaP.
Setting [4] is: VCaP cells, read-out: AR-V7 Dmax VCaP.

Read-outs that look alike come from different tables or passages of the source.

Turning to `Cc1ncsc1-c1ccc(CNC(=O)[C@@H]2C[C@H](O)CN2C(=O)[C@@H](NC(=O)COCCCCOc2ccc(C3CCN(C4=Nn5c(nnc5C(F)(F)F)CC4)CC3)cc2)C(C)(C)C)cc1` [ITRI-90, (2S,4S)-1-((S)-3,3-dimethyl-2-(2-(4-(4-(1-(3-(trifluoromethyl)-7,8-dihydro-[1,2,4]triazolo[4,3-b]pyridazin-6-yl)piperidin-4-yl)phenoxy)butoxy)acetamido)butanoyl)-4-hydroxy-N-(4-(4-methylthiazol-5-yl)benzyl)pyrrolidine-2-carboxamide], the DC50 is, setting by setting: under setting [1], 4720 ± 2520 nM; under setting [3], 290 ± 150 nM. Further, the Dmax at 20 µM under setting [2] stood at 100% and the Dmax at 20 µM under setting [4] turned out to be 63%.
In the case of `O=C1CCC(N2Cc3c(NC(=O)COCCCCOc4ccc(C5CCN(C6=Nn7c(nnc7C(F)(F)F)CC6)CC5)cc4)cccc3C2=O)C(=O)N1` (stereo not drawn) [ITRI-126, N-(2-(2,6-dioxopiperidin-3-yl)-1-oxoisoindolin-4-yl)-2-(4-(4-(1-(3-(trifluoromethyl)-7,8-dihydro-[1,2,4]triazolo[4,3-b]pyridazin-6-yl)piperidin-4-yl)phenoxy)butoxy)acetamide], the DC50 by setting is: under setting [1], 11 ± 3 nM; under setting [3], 430 ± 190 nM. For the same molecule, the Dmax at 20 µM worked out at 91% under setting [2] and 82% under setting [4].
On the same counts, the results for `Cc1ncsc1-c1ccc(CNC(=O)[C@@H]2C[C@H](O)CN2C(=O)[C@@H](NC(=O)COCCCCCCOc2ccc(C3CCN(C4=Nn5c(nnc5C(F)(F)F)CC4)CC3)cc2)C(C)(C)C)cc1` [ITRI-125, (2S,4S)-1-((S)-3,3-dimethyl-2-(2-(6-(4-(1-(3-(trifluoromethyl)-7,8-dihydro-[1,2,4]triazolo[4,3-b]pyridazin-6-yl)piperidin-4-yl)phenoxy)hexyloxy)acetamido)butanoyl)-4-hydroxy-N-(4-(4-methylthiazol-5-yl)benzyl)pyrrolidine-2-carboxamide] are 1890 ± 1060 nM, 520 ± 370 nM, 99% and 67%.
